Results as given in patent publication US6914045B2, “Glycopeptide antibiotics” (Wyeth Holdings Corporation, priority 2001, dated 2005).
In brackets after ≈: the same amount, converted by molar mass.

Experiments:
Assay in all cases: in vitro antibacterial evaluation, MIC by broth dilution
Format in all cases: cell-based
[1] = test system: Streptococcus sp.; details: broth dilution, 18 hours at 35° C.
Summary of the method: (§1)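 Step 1: dilute antibiotic across 64-0.06 μg/mL in Muller-Hinton II […]. Step 2: inoculate at 5×10^5 CFU/mL.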

[2] = test system: Staphylococcus sp.; details: broth dilution, 18 hours at 35° C.; for MIC Staphylococcus aureus (GC 1131): strain GC 1131
Summary of the method: as §1

[3] = test system: Enterococcus sp.; details: broth dilution, 18 hours at 35° C.
Summary of the method: as §1

[4] = test system: Escherichia coli; details: 18 hours at 35° C.

MIC Streptococcus agalactiae (GC 4564) [1]: >64 µg/mL | MIC Streptococcus pneumoniae (ATCC 6301) [1]: 64 µg/mL (≈ 42.4 µM) | MIC Streptococcus pneumoniae (GC 1894) [1]: 64 µg/mL (≈ 42.4 µM) | MIC Streptococcus pneumoniae (GC 4565) [1]: 64 µg/mL (≈ 42.4 µM) | MIC Streptococcus pyogenes (GC 4563) [1]: 32 µg/mL (≈ 21.2 µM) | MIC Streptococcus pneumoniae (ATCC 6301) ([1]; inoculum 5×10^5 CFU/mL, strain ATCC 6301): 64 µg/mL (≈ 42.4 µM) | MIC Streptococcus pneumoniae (GC 1894) ([1]; inoculum 5×10^5 CFU/mL, strain GC 1894): 64 µg/mL (≈ 42.4 µM) | MIC Streptococcus pyogenes (GC 4563) ([1]; inoculum 5×10^5 CFU/mL, strain GC 4563): 32 µg/mL (≈ 21.2 µM) | MIC Streptococcus agalactiae (GC 4564) ([1]; inoculum 5×10^5 CFU/mL, strain GC 4564): >64 µg/mL | MIC Streptococcus pneumoniae (GC 4565) ([1]; inoculum 5×10^5 CFU/mL, strain GC 4565): 64 µg/mL (≈ 42.4 µM) | MIC Staphylococcus aureus (GC 1131) ([2]; inoculum 5×10^5 CFU/mL): >64 µg/mL | MIC Staphylococcus aureus (ATCC 29213) ([2]; strain ATCC 29213): >64 µg/mL | MIC Staphylococcus aureus (GC 1131) [2]: >64 µg/mL | MIC Staphylococcus aureus (GC 3051) ([2]; strain GC 3051): >64 µg/mL | MIC Staphylococcus aureus (GC 3053) ([2]; strain GC 3053): >64 µg/mL | MIC Staphylococcus aureus (GC 4541) ([2]; strain GC 4541): 64 µg/mL (≈ 42.4 µM) | MIC Staphylococcus aureus (GC 4542) ([2]; strain GC 4542): >64 µg/mL | MIC Staphylococcus aureus-SMITH (GC 4543) ([2]; strain GC 4543): >64 µg/mL | MIC Staphylococcus aureus (GC 4544) ([2]; strain GC 4544): >64 µg/mL | MIC Staphylococcus aureus (GC 4545) ([2]; strain GC 4545): 64 µg/mL (≈ 42.4 µM) | MIC Coagulase Negative Staphylococcus (GC 4547) ([2]; strain GC 4547): 32 µg/mL (≈ 21.2 µM) | MIC Coagulase Negative Staphylococcus (GC 4548) ([2]; strain GC 4548): 64 µg/mL (≈ 42.4 µM) | MIC Coagulase Negative Staphylococcus (GC 4549) ([2]; strain GC 4549): 64 µg/mL (≈ 42.4 µM) | MIC Coagulase Negative Staphylococcus (GC 4551) ([2]; strain GC 4551): >64 µg/mL | MIC Coagulase Negative Staphylococcus (GC 6257) ([2]; strain GC 6257): 64 µg/mL (≈ 42.4 µM) | MIC Enterococcus avium (GC 4558) [3]: 32 µg/mL (≈ 21.2 µM) | MIC Enterococcus faecalis (ATCC 29212) [3]: >64 µg/mL | MIC Enterococcus faecalis (GC 2242) [3]: >64 µg/mL | MIC Enterococcus faecalis (GC 2691) [3]: >64 µg/mL | MIC Enterococcus faecalis (GC 3059) [3]: >64 µg/mL | MIC Enterococcus faecalis (GC 4552) [3]: >64 µg/mL | MIC Enterococcus faecalis (GC 4553) [3]: 64 µg/mL (≈ 42.4 µM) | MIC Enterococcus faecalis (GC 4554) [3]: >64 µg/mL | MIC Enterococcus faecalis (GC 6189) [3]: >64 µg/mL | MIC Enterococcus faecium (GC 2243) [3]: 64 µg/mL (≈ 42.4 µM) | MIC Enterococcus faecium (GC 4556) [3]: >64 µg/mL | MIC Enterococcus faecium (GC 4557) [3]: 8 µg/mL (≈ 5.3 µM) | MIC Enterococcus faecalis (ATCC 29212) ([3]; inoculum 5×10^5 CFU/mL, strain ATCC 29212): >64 µg/mL | MIC Enterococcus faecalis (GC 2242) ([3]; inoculum 5×10^5 CFU/mL, strain GC 2242): >64 µg/mL | MIC Enterococcus faecium (GC 2243) ([3]; inoculum 5×10^5 CFU/mL, strain GC 2243): 64 µg/mL (≈ 42.4 µM) | MIC Enterococcus faecalis (GC 2691) ([3]; inoculum 5×10^5 CFU/mL, strain GC 2691): >64 µg/mL | MIC Enterococcus faecalis (GC 3059) ([3]; inoculum 5×10^5 CFU/mL, strain GC 3059): >64 µg/mL | MIC Enterococcus faecalis (GC 4552) ([3]; inoculum 5×10^5 CFU/mL, strain GC 4552): >64 µg/mL | MIC Enterococcus faecalis (GC 4553) ([3]; inoculum 5×10^5 CFU/mL, strain GC 4553): 64 µg/mL (≈ 42.4 µM) | MIC Enterococcus faecalis (GC 4554) ([3]; inoculum 5×10^5 CFU/mL, strain GC 4554): >64 µg/mL | MIC Enterococcus faecium (GC 4556) ([3]; inoculum 5×10^5 CFU/mL, strain GC 4556): >64 µg/mL | MIC Enterococcus faecium (GC 4557) ([3]; inoculum 5×10^5 CFU/mL, strain GC 4557): 8 µg/mL (≈ 5.3 µM) | MIC Enterococcus avium (GC 4558) ([3]; inoculum 5×10^5 CFU/mL, strain GC 4558): 32 µg/mL (≈ 21.2 µM) | MIC Enterococcus faecalis (GC 6189) ([3]; inoculum 5×10^5 CFU/mL, strain GC 6189): >64 µg/mL | MIC Escherichia coli (ATCC 25922) [4]: 64 µg/mL (≈ 42.4 µM) | MIC Escherichia coli (GC 4559) [4]: 64 µg/mL (≈ 42.4 µM) | MIC Escherichia coli (GC 4560) [4]: 8 µg/mL (≈ 5.3 µM)
Compound: CC(c1ccccc1)C1NC(=O)CNC(=O)C(CO)NC(=O)C(C(O)C2CNC(=N)N2C2OC(CO)C(O)C(O)C2O)NC(=O)C(C(O)C2CNC(=N)N2)NC(=O)C(Cc2ccc(OC3OC(CO)C(OC4OC5COC(c6ccccc6)OC5C(O)C4O)C(O)C3O)c(I)c2)NC1=O (centres unmarked) [Example 196]
MIC Staphylococcus haemolyticus (GC 4546) ([2]; strain GC 4546): 32 µg/mL (≈ 21.2 µM)
